Converted amounts (≈) assume the structure as drawn. Where two headings read alike, the source gives them in different places.
Tests used:
Rhino 85 = assay: Multicycle CPE reduction assay; format: cell-based, rhinovirus 85; settings: Enterovirus; 37° C. in HeLa cells
Protocol: (§1) The test compounds were evaluated for anti-picornavirus activity by a multicycle cytopathic effect (CPE) reduction assay. The antiviral activity was initially determined using an MTS [3-(4,5-dimethylthiazol-2-yl)-5-(3-carboxymethoxyphenyl)-2-(4-sulfophenyl)-2H-tetrazolium]-based CPE reduction assay.
(§2) In this regard, cells grown to confluence in 96-well plates were infected with 100 50% cell culture infective doses (CCID50) of virus. After an adsorption period of 2 hrs at 37° C., virus was removed and serial dilutions of the compounds were added. […] After removal of the medium, 90 μl of a culture medium and 10 μl of MTS-phenazine methosulfate (Promega, Leiden, The Netherlands) were added to each well. After an incubation period of 2 hrs at 37° C., the optical density (OD) of each well was read at 498 nm in a microplate reader.
(§3) CPE values for evaluating antiviral activity were calculated using the following Mathmatic Formula 3: […]
(§4) The 50% effective concentration (EC50) and the 50 cytotoxic concentration (CC50) were defined as the concentrations of compound that offered 50% protection against virus-induced CPE and that killed cells by 50%, respectively, and were calculated using logarithmic interpolation.

Coxsackie B3 = assay: Multicycle CPE reduction assay; format: cell-based, Coxsackievirus B3; settings: Enterovirus B, 37° C. in Vero cells
Protocol: as §1, §2, §3, §4

Polio 1 = assay: microbe, parasite or virus in culture; format: cell-based, poliovirus 1; settings: Enterovirus C, BGM, read-out: Polio 1 EC50
in vitro = settings: human, CC50
Rhino 89 = assay: Multicycle CPE reduction assay; format: cell-based, rhinovirus 89; settings: Enterovirus; 37° C. in HeLa cells
Protocol: as §1, §2, §3, §4

Rhino 29 = assay: Multicycle CPE reduction assay; format: cell-based, rhinovirus 29; settings: Enterovirus; 37° C. in HeLa cells
Protocol: as §1, §2, §3, §4

Coxsackie-virus B3 = assay: Cytopathic effect (CPE) inhibition assay; format: cell-based, Coxsackievirus B3; settings: Enterovirus B, HeLa37, 48 h; Table 3; HeLa, 37° C., 2 days; read-out: EC50 Coxsackie-virus B3
Rhino 39 = assay: Multicycle CPE reduction assay; format: cell-based, rhinovirus 39; settings: Enterovirus; 37° C. in HeLa cells
Protocol: as §1, §2, §3, §4

[1] = Cytotoxicity (CC50), MTS-based multicycle CPE reduction assay, Experimental Example 2; format: cell-based; settings: Table 5
Protocol: as §1, §2
(§5) CPE values for evaluating cytotoxicity were calculated using the following Mathmatic Formula 4: […]
as §4

polioviruses 1, 2 and 3 = assay: organism not typed; format: cell-based; settings: read-out: EC50 against polioviruses 1, 2 and 3
Rhino 14 = assay: Multicycle CPE reduction assay; format: cell-based, rhinovirus 14; settings: Enterovirus; 37° C. in HeLa cells
Protocol: as §1, §2, §3, §4

Echo 9 = assay: Multicycle CPE reduction assay; format: cell-based, echovirus 9; settings: Enterovirus B, MRC5; 37° C. in MRC-5 cells
Protocol: as §1, §2, §3, §4

Rhino 41 = assay: Multicycle CPE reduction assay; format: cell-based, rhinovirus 41; settings: Enterovirus; 37° C. in HeLa cells
Protocol: as §1, §2, §3, §4

Entero 71 = assay: Multicycle CPE reduction assay; format: cell-based, enterovirus 71; settings: Enterovirus A; 37° C. in RD cells
Protocol: as §1, §2, §3, §4

Coxsackie-virus A24 (HG) = assay: Cytopathic effect (CPE) inhibition assay; format: cell-based, Coxsackievirus A24; settings: Enterovirus C, MRC5, 48 h; Table 3; MRC-5, 37° C., 2 days
Polio 3 = assay: microbe, parasite or virus in culture; format: cell-based, poliovirus 3; settings: Enterovirus C, BGM, read-out: Polio 3 EC50
[2] = system: echovirus 9 and echovirus 11; assay: Multicycle CPE reduction assay, text summary; format: cell-based; settings: Enterovirus B; Table 5; read-out: EC50 against echovirus 9 and echovirus 11
Rhino 9 = assay: Multicycle CPE reduction assay; format: cell-based, rhinovirus 9; settings: Enterovirus; 37° C. in HeLa cells
Protocol: as §1, §2, §3, §4

Coxsackie A9 = assay: Multicycle CPE reduction assay; format: cell-based, Coxsackievirus A9; settings: Enterovirus B, 37° C. in BGM cells
Rhino 45 = assay: Multicycle CPE reduction assay; format: cell-based, rhinovirus 45; settings: 37° C. in HeLa cells
Protocol: as §1, §2, §3, §4

Echo 11 = assay: Multicycle CPE reduction assay; format: cell-based, echovirus 11; settings: Enterovirus B; 37° C. in BGM cells
Protocol: as §1, §2, §3, §4

Rhino 70 = assay: Multicycle CPE reduction assay; format: cell-based, rhinovirus 70
Protocol: as §1, §2, §3, §4

Coxsackie-virus B1 = assay: Cytopathic effect (CPE) inhibition assay; format: cell-based, Coxsackievirus B1; settings: Enterovirus B, HeLa37, 48 h; Table 3; HeLa, 37° C., 2 days; read-out: EC50 Coxsackie-virus B1
Polio-virus 3 = assay: microbe, parasite or virus in culture; format: cell-based, Poliovirus 3; settings: Enterovirus C, HeLa37, 48 h, read-out: EC50 Polio-virus 3
Coxsackie-virus A24 (DN) = assay: Cytopathic effect (CPE) inhibition assay; format: cell-based, Coxsackievirus A24; settings: Enterovirus C, MRC5, 48 h; Table 3; MRC-5, 37° C., 2 days
Rhino 15 = assay: Multicycle CPE reduction assay; format: cell-based, rhinovirus 15; settings: Enterovirus; 37° C. in HeLa cells
Protocol: as §1, §2, §3, §4

Rhino 63 = assay: Multicycle CPE reduction assay; format: cell-based, rhinovirus 63; settings: Enterovirus; 37° C. in HeLa cells
Protocol: as §1, §2, §3, §4

Rhino 2 = assay: Multicycle CPE reduction assay; format: cell-based, rhinovirus 2; settings: Enterovirus; 37° C. in HeLa cells
Protocol: as §1, §2, §3, §4

uninfected cell cultures = assay: Cytotoxicity (CC50), MTS-based multicycle CPE reduction assay, Experimental Example 2; format: cell-based; settings: Table 5, listed as Ex. 74
Protocol: as §1, §2, §5, §4

Rhino 42 = assay: Multicycle CPE reduction assay; format: cell-based, rhinovirus 42; settings: Enterovirus; 37° C. in HeLa cells
Protocol: as §1, §2, §3, §4

Rhino 86 = assay: Multicycle CPE reduction assay; format: cell-based, rhinovirus 86; settings: Enterovirus; 37° C. in HeLa cells
Protocol: as §1, §2, §3, §4

Coxsackie A21 = assay: Multicycle CPE reduction assay; format: cell-based, Coxsackievirus A21; settings: Enterovirus C, A21, MRC5, read-out: Coxsackie A21 EC50
Coxsackie A16 = assay: Multicycle CPE reduction assay; format: cell-based, Coxsackievirus A16; settings: Enterovirus A, A16, MRC5; 37° C. in MRC-5 cells
Protocol: as §1, §2, §3, §4

Rhino 72 = assay: Multicycle CPE reduction assay; format: cell-based, rhinovirus 72; settings: Enterovirus; 37° C. in HeLa cells
Protocol: as §1, §2, §3, §4

Rhino 59 = assay: Multicycle CPE reduction assay; format: cell-based, rhinovirus 59; settings: Enterovirus; 37° C. in HeLa cells

Structure (SMILES) | EC50 (Rhino 85) [nM] | EC50 (Polio 1) [nM] | EC50 (Rhino 89) [nM] | EC50 (Rhino 29) [nM] | EC50 (Rhino 39) [nM] | CC50 at 3 days [1] [nM] | EC50 (Rhino 14) [nM] | EC50 (Echo 9) [nM] | EC50 (Rhino 41) [nM] | EC50 (Entero 71) [nM] | EC50 (Rhino 9) [nM] | EC50 (Rhino 45; Enterovirus, HeLa) [nM] | EC50 (Echo 11) [nM] | EC50 (Rhino 15) [nM] | EC50 (Rhino 63) [nM] | EC50 (Rhino 2) [nM] | melting point [°C] | further results
CC(=O)Oc1cc(C(C)C)ccc1C1(OC(C)=O)C(=O)c2cccc(N)c2C1=O (centres unmarked) [Example 36, Acetic acid 2-(2-acetoxy-4-isopropyl-phenyl)-4-amino-1,3-dioxo-indan-2-yl ester] | 7500 ± 1200 | 220 ± 50 | 490 ± 38 | 5500 ± 720 | 1400 ± 200 | > 50000 | 350 ± 320 | 11 ± 3.2 | 540 ± 3 | 6.7 | 1200 ± 120 | ≤ 78 | 8.2 ± 1.9 | 1500 ± 240 | > 10000 | 7800 ± 570 | 148 to 151 | EC50 (Coxsackie B3): < 10 nM; CC50 (in vitro): 9.42 µg/mL (≈ 23.8 µM); EC50 (Coxsackie-virus B3): < 0.01 µg/mL; EC50 (polioviruses 1, 2 and 3): 10 nM; EC50 (Coxsackie-virus A24 (HG)): < 0.01 µg/mL; EC50 (Polio 3): < 10 nM; EC50 [2]: 8.2 nM; EC50 (Coxsackie A9): 7 ± 0.18 nM; EC50 (Rhino 45; listed as Ex. 36): < 78 nM; EC50 (Rhino 70; Enterovirus, HeLa, 37° C. in HeLa cells, read-out: Rhino 70 EC50): ≤ 78 nM; EC50 (Rhino 70; read-out: Rhino 70 EC50, 37° C. in HeLa cells, listed as Ex. 36): > 78 nM; EC50 (Coxsackie-virus B1): < 0.01 µg/mL; EC50 (Polio-virus 3): < 0.01 µg/mL; EC50 (Coxsackie-virus A24 (DN)): < 0.1 µg/mL
CC(=O)Oc1cc(C)ccc1C1(OC(C)=O)C(=O)c2ccccc2C1=O [Example 74, 2-2-Acetoxy-1,3-dioxo-2,3-dihydro-1H-inden-2-yl] | > 50000 | 20000 ± 14000 | > 50000 | > 50000 | > 50000 | ≥ 100000 | > 50000 | 610 ± 38 | > 50000 | 3300 ± 1600 | > 50000 | > 50000 | 700 ± 240 | > 50000 | > 50000 | > 50000 | 145 to 147 | CC50 (uninfected cell cultures): > 100000 nM; EC50 (Rhino 42): > 50000 nM; EC50 (Rhino 70; Enterovirus, HeLa, read-out: Rhino 70 EC50, 37° C. in HeLa cells): > 50000 nM; EC50 (Rhino 86): 26000 ± 18000 nM; EC50 (Coxsackie A21): 26000 ± 340 nM; EC50 (Coxsackie A16): 13000 ± 320 nM; EC50 (Rhino 72): > 50000 nM; EC50 (Rhino 59): > 50000 nM

Reference: patent US9833423B2 (KOREA RESEARCH INSTITUTE OF CHEMICAL TECHNOLOGY, priority 2011, dated 2017)
